According to ChEMBL document CHEMBL1938327, “Thiazolides as novel antiviral agents. 2. Inhibition of hepatitis C virus replication” (J Med Chem, 2011):

How the values were obtained:
[1] = Cytotoxicity against human Ava5 cells after 3 days by neutral red dye assay; format: cell-based
[2] = Selectivity index, ratio of CC50 for human Ava5 cells to EC50 for HCV genotype 1b infected in human Ava5 cells
[3] = test system: Hepatitis C virus; assay: Antiviral activity against HCV genotype 1b infected in Ava5 cells assessed as inhibition of viral replication after 3 days by blot hybridization analysis; format: functional, organism-based, Hepacivirus hominis; settings: Ava5, 72 h
[4] = test system: Hepatitis C virus; assay: Antiviral activity against HCV genotype 1a infected in Huh7.5 cells assessed as inhibition of viral replication after 3 days by blot hybridization analysis; format: functional, organism-based, Hepacivirus hominis; settings: subtype 1a, Huh7.5, 72 h
[5] = Cytotoxicity against human Huh7.5 cells after 3 days by neutral red dye assay; format: cell-based, Huh-7
[6] = Selectivity index, ratio of CC50 for human Huh7.5 cells to EC50 for HCV genotype 1a infected in human Huh7.5 cells; design: species or system Huh-7
[7] = species: Rattus norvegicus; assay: Toxicity in rat; format: organism-based; settings: in vivo
[8] = Toxicity in po dosed dog; format: organism-based, Canis lupus familiaris; settings: in vivo
[9] = Aqueous solubility of the compound; format: physicochemical; settings: buffer
[10] = test system: Canis familiaris; assay: Drug metabolism in dog assessed as deactyl derivative formation at 1 mg/kg, iv after 1 hr; format: ADME, organism-based, Canis lupus familiaris; design: dose 1 mg/kg, route intravenous; settings: in vivo
[11] = test system: Canis familiaris; assay: Drug metabolism in dog assessed as glucurono-conjugate formation at 1 mg/kg, iv after 2 hrs; format: ADME, organism-based, Canis lupus familiaris; design: dose 1 mg/kg, route intravenous; settings: in vivo

Row | Structure (SMILES) | CC50 at 72 h [1] | Ratio CC50/EC50 [2] | EC50 [3] | EC90 [3] | EC50 [4] | EC90 [4] | CC50 at 72 h [5] | Ratio CC50/EC50 [6] | Activity [7] | MTD [8] | solubility [9] | Drug metabolism [10] | Drug metabolism [11]
1 | O=C(Nc1ccccc1Cl)c1ccccc1O | 72 µM | 19 | 3.8 µM | 21 µM | – | – | – | – | – | – | – | – | –
2 | Cc1cnc(NC(=O)c2ccccc2O)s1 | 45 µM | 11 | 4.2 µM | 14 µM | – | – | – | – | – | – | – | – | –
3 | Cc1nc(NC(=O)c2ccccc2O)sc1Br | 15 µM | – | > 10 µM | > 10 µM | – | – | – | – | – | – | – | – | –
4 | N#Cc1cnc(NC(=O)c2ccccc2O)s1 | 15 µM | 4.1 | > 10 µM | > 10 µM | > 10 µM | > 10 µM | 11 µM | – | – | – | – | – | –
5 | CC(=O)Oc1c(C)cccc1C(=O)Nc1ncc(Cl)s1 | 12 µM | 11 | 0.59 µM | 8.9 µM | 1 µM | 3.8 µM | 14 µM | 14 | – | – | – | – | –
6 | Cc1cccc(C(=O)Nc2ncc(Br)s2)c1O | 15 µM | 11 | > 1.9 µM | > 10 µM | > 10 µM | > 10 µM | 25 µM | – | Toxic | < 25 mg/kg | – | – | –
7 | CC(=O)Oc1ccc(C)cc1C(=O)Nc1ncc(Br)s1 | 10 µM | 3.3 | 3 µM | 7.8 µM | 3 µM | 8.6 µM | 11 µM | 3.7 | – | – | – | – | –
8 | CC(=O)Oc1ccccc1C(=O)Nc1ncc(Br)s1 | 12 µM | 3 | 3.8 µM | 11 µM | 3.3 µM | 10 µM | 21 µM | 6 | – | – | – | – | –
9 | O=C(Nc1ncc(Cl)s1)c1ccccc1O | 15 µM | – | 10 µM | 10 µM | – | – | – | – | – | – | – | – | –
10 | O=C(Nc1ncc([N+](=O)[O-])s1)c1ccccc1O [TIZOXANIDE] | 15 µM | 100 | 0.15 µM | 0.81 µM | 0.25 µM | 1 µM | 14 µM | 56 | – | – | – | – | –
11 | CC(=O)Oc1ccccc1C(=O)Nc1ncc(Cl)s1 | 4.3 µM | 16 | 0.23 µM | 1.1 µM | 0.4 µM | 1.9 µM | 5.7 µM | 14 | – | – | – | – | –
12 | O=C(Nc1cc(C(F)(F)F)ccc1Cl)c1ccccc1O | 0.33 µM | 65.2 | 0.01 µM | 0.03 µM | – | – | – | – | – | – | – | – | –
13 | CC(=O)Oc1ccccc1C(=O)Nc1nc(C(F)(F)F)cs1 | 2.8 µM | – | > 10 µM | > 10 µM | – | – | – | – | – | – | soluble | – | –
14 | CC(=O)Oc1ccccc1C(=O)Nc1cccc(F)c1 | > 100 µM | 26 | 3.8 µM | 11 µM | – | – | – | – | – | – | – | – | –
15 | O=C(Nc1nc(-c2ccccc2)c(Br)s1)c1ccccc1O | 16 µM | 7.3 | > 2.2 µM | > 7 µM | > 10 µM | > 10 µM | 62 µM | – | – | – | – | – | –
16 | C[S+]([O-])c1csc(NC(=O)c2ccccc2O)n1 (stereo unspecified) | 63 µM | 32 | 2 µM | 4.6 µM | – | – | – | – | – | – | – | – | –
17 | COC(=O)c1ccc(NC(=O)c2ccccc2OC(C)=O)cc1 | 4.4 µM | 76 | 0.06 µM | 0.46 µM | – | – | – | – | – | – | – | – | –
18 | CC(=O)Oc1ccccc1C(=O)Nc1ncc([N+](=O)[O-])s1 [NITAZOXANIDE] | 35 µM | 143 | 0.21 µM | 0.93 µM | 0.33 µM | 1.1 µM | 49 µM | 149 | – | – | – | – | –

Row | Structure (SMILES) | CC50 at 72 h [1] | Ratio CC50/EC50 [2] | EC50 [3] | EC90 [3] | EC50 [4] | EC90 [4] | CC50 at 72 h [5] | Ratio CC50/EC50 [6] | Activity [7] | MTD [8] | solubility [9] | Drug metabolism [10] | Drug metabolism [11]
19 | CS(=O)(=O)c1csc(NC(=O)c2ccccc2O)n1 | 85 µM | 170 | 0.5 µM | 1.7 µM | – | – | – | – | – | – | – | – | –
20 | Cc1ccc(O)c(C(=O)Nc2ncc(Cl)s2)c1 | 2.3 µM | – | > 10 µM | > 10 µM | 10 µM | 10 µM | 16 µM | – | – | – | – | Active | Active
21 | O=C(Nc1ncc(Br)s1)c1cccc(Cl)c1O | 10 µM | 2.7 | > 5.2 µM | > 10 µM | > 10 µM | > 10 µM | 11 µM | – | – | – | – | – | –
22 | CS(=O)(=O)c1cnc([N-]C(=O)c2ccccc2O)s1.[Na+] | 43 µM | 29 | 1.5 µM | 5.2 µM | – | – | – | – | – | – | – | – | –
23 | Cc1ccc(C(=O)Nc2ncc(Cl)s2)c(O)c1 | 30 µM | – | > 10 µM | > 10 µM | – | – | – | – | – | – | – | – | –
24 | CC(=O)Nc1cnc(NC(=O)c2ccccc2O)s1 | 11 µM | – | > 10 µM | > 10 µM | – | – | – | – | – | – | – | – | –
25 | O=C(Nc1ccc([N+](=O)[O-])cc1Cl)c1cc(Cl)ccc1O [NICLOSAMIDE] | 10 µM | 16.2 | 0.16 µM | 0.7 µM | – | – | – | – | – | – | soluble | – | –
26 | O=C(Nc1ncc(F)s1)c1ccccc1O | 24 µM | – | > 10 µM | > 10 µM | > 10 µM | > 10 µM | 2.9 µM | – | – | – | – | – | –
27 | CC(=O)Oc1ccccc1C(=O)Nc1ncc(C(F)(F)F)s1 | 1.7 µM | 0.9 | > 4.3 µM | > 8.2 µM | > 10 µM | > 10 µM | 14 µM | – | – | – | soluble | – | –
28 | O=C(Nc1cc(C(F)(F)F)cc(C(F)(F)F)c1)c1ccccc1O | 3.7 µM | 1.1 | 3.5 µM | 8.1 µM | – | – | – | – | – | – | soluble | – | –
29 | CS(=O)(=O)c1ccc(NC(=O)c2ccccc2O)cc1 | > 100 µM | – | > 10 µM | > 10 µM | – | – | – | – | – | – | – | – | –
30 | CC(=O)Oc1ccccc1C(=O)Nc1ccc(Br)cc1 | 0.6 µM | 1.3 | 0.45 µM | 3.4 µM | – | – | – | – | – | – | – | – | –
31 | CCOC(=O)c1cnc(NC(=O)c2ccccc2O)s1 | 14 µM | – | > 10 µM | > 10 µM | – | – | – | – | – | – | – | – | –
32 | O=C(Nc1ncc(Br)s1)c1ccccc1O | 20 µM | 20 | 4.9 µM | 10 µM | 2.8 µM | 9.4 µM | 88 µM | 31.4 | – | – | – | – | –
33 | O=C(Nc1ncc([N+](=O)[O-])s1)c1cc(Cl)ccc1O | > 100 µM | >50 | 2 µM | 5.9 µM | – | – | – | – | – | – | – | – | –
34 | O=C(Nc1nc(-c2ccccc2)cs1)c1ccccc1O | 14 µM | 7.4 | > 3.5 µM | ≥ 10 µM | > 10 µM | > 10 µM | 29 µM | – | – | – | – | – | –
35 | O=C(Nc1cccc(F)c1)c1ccccc1O | 3.4 µM | 26 | 0.13 µM | 0.83 µM | – | – | – | – | – | – | – | – | –
